Measurements from patent publication US12122785B2, “Substituted pyridines, pyridazines, pyrimidines, and 1,2,4-triazines as TYK2 inhibitors” (Sudo Biosciences Limited, priority 2021, dated 2024).

Legend:
[1] = biological target: T1, JAK3 kinase domain (JH1) (Homo sapiens, UniProt P52333); test: HTRF-based selectivity assay, JAK3 catalytic domain; format: biochemical; conditions: 2.12 μM ATP
T1 construct: recombinant purified His or GST-tagged catalytic domain for each enzyme; purchased Carna biosciences 08-046
T1 sequence (P52333 822-1111 limits assumed): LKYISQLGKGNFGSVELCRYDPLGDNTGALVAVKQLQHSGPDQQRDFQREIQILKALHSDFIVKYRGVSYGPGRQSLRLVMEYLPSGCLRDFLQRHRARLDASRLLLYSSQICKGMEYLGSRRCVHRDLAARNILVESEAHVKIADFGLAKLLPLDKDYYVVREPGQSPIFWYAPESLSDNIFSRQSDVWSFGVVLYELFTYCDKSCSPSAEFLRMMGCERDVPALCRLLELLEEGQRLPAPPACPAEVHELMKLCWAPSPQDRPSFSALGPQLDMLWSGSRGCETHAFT
Method: (§1) Example B-2: HTRF-Based Selectivity Assay
(§2) The ability of compounds to inhibit the activity of JAK1, JAK2, JAK3 and TYK2 is measured using a recombinant purified His or GST-tagged catalytic domain for each enzyme (JAK1, JAK2 and TYK2 are generated in-house; JAK3 was purchased from Carna biosciences, Cat #08-046) in an HTRF format biochemical assay. The reactions employs a commercial peptide substrate from Cisbio (Cat #62TK0PEC). The basic assay protocol is as follows: first, 2.5 μL of diluted compounds (4×) in DMSO are dispensed into a 384-well Optiplate. Next, 2.5 μL of enzyme (final concentrations for enzymes are: TYK2—700 ng/mL, JAK1—80.6 ng/mL, JAK2—2.1 ng/mL and JAK3—171.8 ng/mL) is added and incubated at RT for 5-20 min. Finally, 5 μl of mixture of 2×ATP [Final concentration 20 μM for TYK2, 21.43 μM for JAK1, 14.7 μM for JAK2 and 2.12 μM for JAK3]+2× Substrate [Final concentration 217 nM for TYK2, 454.7 nM for JAK1, 200 nM for JAK2 and 257.4 nM for JAK3] is added to 384 well Optiplate. Composition of Kinase assay buffer used in the assay is as follows: HEPES 50 mM, EGTA 1 mM, MgCl2 10 mM, DTT 2 mM, Tween-20 0.01% and water. Then the plates are shaken and then incubated at 26.5° C. for 60 min.

[2] = tested on: TYK2 pseudokinase (JH2); IL-23-stimulated HEK-Blue IL-23 cells; test: HEK-Blue IL-23 reporter assay (STAT3-inducible SEAP) for profiling TYK2 pseudokinase (JH2) inhibition; format: cell-based; conditions: 10 ng/mL human recombinant IL-23, SEAP readout, read-out: IL23 (TYK2 inhibitory activity, IC50)
Outline: (§3)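 STAT-driven SEAP expression is measured with QUANTI-Blue. Cells receive test compound in serial dilution 60 min ahead of 10 ng/mL IL-23 (22-24 h) or 1 ng/mL IFNα (16-18 h).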

[3] = tested on: IFNγ-stimulated HEK-Blue IFNγ reporter cells; test: HEK-Blue IFNγ reporter assay (STAT1-inducible SEAP) for determining selectivity; format: cell-based; conditions: 50 ng/mL human recombinant IFNγ, 24 hours, read-out: IFN-γ SEAP selectivity assay IC50
Outline: (§4)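 Cells were plated for 20-22 h, then pretreated with serially diluted compound for 60 min. They were stimulated for 24 h with 4 ng/mL human recombinant IL-2 or 50 ng/mL human recombinant IFNγ, and SEAP induction was read with QUANTI-Blue.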

[4] = biological target: T2, JAK2 kinase domain (JH1) (Homo sapiens, UniProt O60674); test: HTRF-based selectivity assay, JAK2 catalytic domain; format: biochemical; conditions: 14.7 μM ATP
T2 construct: recombinant purified His or GST-tagged catalytic domain for each enzyme; made in house
T2 sequence (O60674 849-1124 limits assumed): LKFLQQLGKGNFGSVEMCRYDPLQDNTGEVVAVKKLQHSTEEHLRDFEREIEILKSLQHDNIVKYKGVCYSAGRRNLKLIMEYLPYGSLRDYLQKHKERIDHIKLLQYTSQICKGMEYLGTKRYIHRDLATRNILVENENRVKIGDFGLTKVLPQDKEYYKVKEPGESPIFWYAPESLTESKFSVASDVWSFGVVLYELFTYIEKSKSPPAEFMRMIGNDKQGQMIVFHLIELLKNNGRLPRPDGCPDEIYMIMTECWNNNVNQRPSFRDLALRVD
Method: as §1, §2

[5] = tested on: TYK2 pseudokinase (JH2); IFNα-stimulated HEK-Blue IFNα/β cells; test: HEK-Blue IFNα/β reporter assay (STAT1-inducible SEAP) for profiling TYK2 pseudokinase (JH2) inhibition; format: cell-based; conditions: 1 ng/mL human recombinant IFNα, SEAP readout, read-out: IFNα (TYK2 inhibitory activity, IC50)
Outline: as §3

[6] = biological target: T3, TYK2 kinase domain (JH1) (Homo sapiens, UniProt P29597); test: HTRF-based selectivity assay, TYK2 catalytic domain; format: biochemical; conditions: 20 μM ATP
T3 construct: recombinant purified His or GST-tagged catalytic domain for each enzyme; made in house
T3 sequence (P29597 897-1176 limits assumed): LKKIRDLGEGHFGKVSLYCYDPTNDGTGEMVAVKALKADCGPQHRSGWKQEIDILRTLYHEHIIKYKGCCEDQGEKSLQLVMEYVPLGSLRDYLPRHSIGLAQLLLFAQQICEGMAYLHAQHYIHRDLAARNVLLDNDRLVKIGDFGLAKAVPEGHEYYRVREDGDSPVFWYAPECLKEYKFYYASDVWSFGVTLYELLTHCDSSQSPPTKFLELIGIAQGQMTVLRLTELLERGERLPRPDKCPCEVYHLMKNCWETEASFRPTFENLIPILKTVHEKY
Method: as §1, §2

[7] = biological target: T4, JAK1 kinase domain (JH1) (Homo sapiens, UniProt P23458); test: HTRF-based selectivity assay, JAK1 catalytic domain; format: biochemical; conditions: 21.43 μM ATP, read-out: JAK-JHI (IC50)
T4 construct: recombinant purified His or GST-tagged catalytic domain for each enzyme; made in house
T4 sequence (P23458 875-1153 limits assumed): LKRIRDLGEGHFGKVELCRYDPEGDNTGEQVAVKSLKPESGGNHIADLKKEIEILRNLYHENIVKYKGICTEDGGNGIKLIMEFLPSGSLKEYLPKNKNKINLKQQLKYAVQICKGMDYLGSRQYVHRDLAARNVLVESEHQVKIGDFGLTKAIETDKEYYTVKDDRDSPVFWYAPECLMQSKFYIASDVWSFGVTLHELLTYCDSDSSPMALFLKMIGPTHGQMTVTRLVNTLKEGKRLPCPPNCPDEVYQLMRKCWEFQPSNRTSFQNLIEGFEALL
Method: as §1, §2

[8] = tested on: IL-2-stimulated HEK-Blue IL-2 reporter cells; test: HEK-Blue IL-2 reporter assay (STAT5-inducible SEAP) for determining selectivity; format: cell-based; conditions: 4 ng/mL human recombinant IL-2, 24 hours
Outline: as §4

Row | Structure (SMILES) | IC50 [1] [nM] | IC50 [4] [nM] | IC50 [6] [nM] | IC50 [7] [nM] | IC50 [2] [nM] | IC50 [3] [nM] | IC50 [5] [nM] | IC50 [8] [nM]
1 | [2H]C([2H])([2H])NC(=O)c1cnc(NC(=O)C2(O)CC2)cc1Nc1cccc2c1N(C)Cc1cn(C)nc1-2 [Compound 21, 4-((2,5-dimethyl-4,5-dihydro-2H-pyrazolo[4,3-c]quinolin-6-yl)amino)-6-(1-hydroxycyclopropane-1-carboxamido)-N-(methyl-d3)nicotinamide] | > 1000 | > 1000 | > 1000 | > 1000 | 30 to 300 | > 1000 | 30 to 300 | > 1000
2 | [2H]C([2H])([2H])NC(=O)c1cnc(N2CCN(C(C)C)C2=O)cc1Nc1cccc2c1N(C)Cc1cn(C)nc1-2 [Compound 61, 4-((2,5-dimethyl-4,5-dihydro-2H-pyrazolo[4,3-c]quinolin-6-yl)amino)-6-(3-isopropyl-2-oxoimidazolidin-1-yl)-N-(methyl-d3)nicotinamide] | > 1000 | > 1000 | > 1000 | > 1000 | < 30 | > 1000 | 30 to 300 | > 1000
3 | [2H]C([2H])([2H])NC(=O)c1cnc(NC(=O)C2CC2)cc1Nc1cccc2c1N(C)Cc1c[nH]nc1-2 [Compound 23, 6-(cyclopropanecarboxamido)-N-(methyl-d3)-4-((5-methyl-4,5-dihydro-2H-pyrazolo[4,3-c]quinolin-6-yl)amino)nicotinamide] | > 1000 | > 1000 | > 1000 | > 1000 | < 30 | > 1000 | < 30 | > 1000
4 | [2H]C([2H])([2H])NC(=O)c1nnc(NC(=O)C2CC2)cc1Nc1cccc2c1N(C)Cc1cn(C)nc1-2 [Compound 15, 6-(cyclopropanecarboxamido)-4-((2,5-dimethyl-4,5-dihydro-2H-pyrazolo[4,3-c]quinolin-6-yl)amino)-N-(methyl-d3)pyridazine-3-carboxamide] | > 1000 | > 1000 | > 1000 | > 1000 | < 30 | > 1000 | < 30 | > 1000
5 | [2H]C([2H])([2H])NC(=O)c1cnc(NC(=O)C2CC2)cc1Nc1cccc2c1N(C)Cc1cn(C([2H])([2H])[2H])nc1-2 [Compound 19, 6-(cyclopropanecarboxamido)-N-(methyl-d3)-4-((5-methyl-2-(methyl-d3)-4,5-dihydro-2H-pyrazolo[4,3-c]quinolin-6-yl)amino)nicotinamide] | > 1000 | > 1000 | > 1000 | > 1000 | < 30 | > 1000 | < 30 | > 1000
6 | [2H]C([2H])([2H])NC(=O)c1cnc(NC(=O)C2CC2)cc1Nc1cccc2c1N(C)Cc1cnn(C)c1-2 [Compound 51, 6-(cyclopropanecarboxamido)-4-((1,5-dimethyl-4,5-dihydro-1H-pyrazolo[4,3-c]quinolin-6-yl)amino)-N-(methyl-d3)nicotinamide] | > 1000 | > 1000 | > 1000 | > 1000 | < 30 | > 1000 | 30 to 300 | > 1000
7 | [2H]C([2H])([2H])NC(=O)c1nnc(NC(=O)C2CC2)cc1Nc1cccc2c1N(C)Cc1c[nH]nc1-2 [Compound 27, 6-(cyclopropanecarboxamido)-N-(methyl-d3)-4-((5-methyl-4,5-dihydro-2H-pyrazolo[4,3-c]quinolin-6-yl)amino)pyridazine-3-carboxamide] | > 1000 | > 1000 | > 1000 | > 1000 | < 30 | 30 to 300 | < 30 | > 1000
8 | CNC(=O)c1nnc(Nc2ccc(F)cn2)cc1Nc1cccc2c1OCc1cnn(C)c1-2 [Compound 49, 6-((5-fluoropyridin-2-yl)amino)-N-methyl-4-((1-methyl-1,4-dihydrochromeno[4,3-c]pyrazol-6-yl)amino)pyridazine-3-carboxamide] | > 1000 | > 1000 | > 1000 | > 1000 | 30 to 300 | < 30 | > 1000 | 300 to 1000

More lines, main results first:

Row | IC50 [1] [nM] | IC50 [4] [nM] | IC50 [6] [nM] | IC50 [7] [nM] | Structure (SMILES) | IC50 [2] [nM] | IC50 [3] [nM] | IC50 [5] [nM] | IC50 [8] [nM]
9 | > 1000 | > 1000 | > 1000 | > 1000 | [2H]C([2H])([2H])NC(=O)c1cnc(NC(=O)C2CC2)nc1Nc1cccc2c1N(C)Cc1cn(C)nc1-2 [Compound 22, 2-(cyclopropanecarboxamido)-4-((2,5-dimethyl-4,5-dihydro-2H-pyrazolo[4,3-c]quinolin-6-yl)amino)-N-(methyl-d3)pyrimidine-5-carboxamide] | < 30 | > 1000 | < 30 | > 1000
10 | > 1000 | > 1000 | > 1000 | > 1000 | [2H]C([2H])([2H])NC(=O)c1cnc(NC(=O)C2CC2)cc1Nc1nccc2c1N(C([2H])([2H])[2H])Cc1cn(C)nc1-2 [Compound 66, 6-(cyclopropanecarboxamido)-N-(methyl-d3)-4-((2-methyl-5-(methyl-d3)-4,5-dihydro-2H-pyrazolo[4,3-c][1,7]naphthyridin-6-yl)amino)nicotinamide] | < 30 | 300 to 1000 | < 30 | > 1000
11 | > 1000 | > 1000 | > 1000 | > 1000 | [2H]C([2H])([2H])NC(=O)c1nnc(Nc2ccc(F)cn2)cc1Nc1cccc2c1OCc1cn(C)nc1-2 [Compound 5, 6-((5-fluoropyridin-2-yl)amino)-N-(methyl-d3)-4-((2-methyl-2,4-dihydrochromeno[4,3-c]pyrazol-6-yl)amino)pyridazine-3-carboxamide] | < 30 | > 1000 | 30 to 300 | > 1000
12 | > 1000 | > 1000 | > 1000 | > 1000 | [2H]C([2H])([2H])NC(=O)c1nnc(NC(=O)C2CC2)cc1Nc1cccc2c1N(C)Cc1cn(C([2H])([2H])[2H])nc1-2 [Compound 20, 6-(cyclopropanecarboxamido)-N-(methyl-d3)-4-((5-methyl-2-(methyl-d3)-4,5-dihydro-2H-pyrazolo[4,3-c]quinolin-6-yl)amino)pyridazine-3-carboxamide] | < 30 | 30 to 300 | < 30 | 300 to 1000
13 | > 1000 | 300 to 1000 | > 1000 | > 1000 | Cn1cc2c(n1)-c1cccc(Nc3cc(Nc4ccc(F)cn4)nnc3C(N)=O)c1OC2 [Compound 8, 6-((5-fluoropyridin-2-yl)amino)-4-((2-methyl-2,4-dihydrochromeno[4,3-c]pyrazol-6-yl)amino)pyridazine-3-carboxamide] | < 30 | < 30 | 30 to 300 | 300 to 1000
14 | > 1000 | > 1000 | > 1000 | > 1000 | CNC(=O)c1nnc(Nc2ccc(F)cn2)cc1Nc1cccc2c1N(C)Cc1cn(C)nc1-2 [Compound 12, (4-((2,5-dimethyl-4,5-dihydro-2H-pyrazolo[4,3-c]quinolin-6-yl)amino)-6-((5-fluoropyridin-2-yl)amino)-N-methylpyridazine-3-carboxamide)] | < 30 | 30 to 300 | < 30 | > 1000
